Patent US20230012368A1 (Hoffmann-La Roche Inc., priority 2018, published 2023)

Test system: Acinetobacter baumannii ATCC 17978
Experiment: Antimicrobial susceptibility testing: 90% growth inhibitory concentration (IC90) determination
Assay type: cell-based
Conditions: Acinetobacter baumannii, ATCC17978, 16 h, 90% growth inhibitory concentration; Acinetobacter baumannii ATCC17978; Iso-Sensitest broth, OD 600 nm over 16h; read-out: ATCC17978 IC90
Summary of the method: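 Growth of the Acinetobacter baumannii strain was followed by optical density at 600 nm every 20 minutes for 16h at 35±2° C. Inoculum was ~5×10^(5) CFU/ml in Iso-Sensitest medium, with twofold compound dilutions (e.g. 50 to 0.097 μM final). The 90% inhibitory concentration was derived in log-phase growth.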

Row | Structure (SMILES) | IC90 [nM]
1 | CCc1cc(Nc2nccn3c(-c4ccc(OC)c(F)c4F)cnc23)ccc1C(=O)NCCNC(=O)N1CCN[C@H](C(=O)O)C1 [Example 350, (2S)-4-[2-[[4-[[3-(2,3-difluoro-4-methoxyphenyl)imidazo[1,2-a]pyrazin-8-yl]amino]-2-ethylbenzoyl]amino]ethylcar-bamoyl]piperazine-2-carboxylic acid;formic acid] | 1200
2 | CCc1cc(Nc2nccn3c(-c4ccc(Cl)cc4Cl)cnc23)ccc1C(=O)NCCNC(=O)[C@H](N)CCCNC(=N)N [Example 351, N-[2-[[(2R)-2-amino-5-carbamimidamidopentanoyl]amino]ethyl]-4-[[3-(2,4-dichlorophenyl)imidazo[1,2-a]pyrazin-8-yl]amino]-2-ethylbenzamide;formic acid] | 1300
3 | COc1ccc(-c2cnc3c(Nc4ccc(C(=O)NCCNC(=O)N5CCN[C@@H](C(=O)O)C5)c(C)c4)nccn23)c(F)c1F [Example 352, (2R)-4-[2-[[4-[[3-(2,3-difluoro-4-methoxyphenyl)imidazo[1,2-a]pyrazin-8-yl]amino]-2-methylbenzoyl]amino]ethyl-carbamoyl]piperazine-2-carboxylic acid;formic acid] | 1300
4 | COc1ccc(-c2cnc3c(Nc4ccc(C(=O)NCCCNC(=O)CC[C@H](N)C(=O)O)c(C)c4)nccn23)c(F)c1F [Example 355, (2S)-2-amino-5-[3-[[4-[[3-(2,3-difluoro-4-methoxyphenyl)imidazo[1,2-a]pyrazin-8-yl]amino]-2-methylbenzoyl]amino]propyl-amino]-5-oxopentanoic acid] | 2500
5 | CCc1cc(Nc2nccn3c(-c4ccc(OC)c(F)c4F)cnc23)ccc1C(=O)NCCCNC(=O)C1CNC(=N)N1 (centres unmarked) [Example 356, N-[3-[[4-[[3-(2,3-difluoro-4-methoxyphenyl)imidazo[1,2-a]pyrazin-8-yl]amino]-2-ethylbenzoyl]amino]propyl]-2-iminoimidazolidine-4-carboxamide] | 50
6 | Cc1cc(Nc2nccn3c(-c4ccc(OCC#N)c(F)c4F)cnc23)ccc1C(=O)NCCCNC(=O)[C@@H]1C[C@@H](O)CN1 [Example 357, (2S,4R)-N-[3-[[4-[[3-[4-(cyanomethoxy)-2,3-difluorophenyl]imidazo[1,2-a]pyrazin-8-yl]amino]-2-methylbenzoyl]amino]propyl]-4-hydroxypyrrolidine-2-carboxamide] | 50
7 | COc1ccc(-c2cnc3c(Nc4ccc(C(=O)NCCCNC(=O)[C@@H]5C[C@@H](O)CN5)c(C)c4)nccn23)c(F)c1F [Example 358, (2S,4R)-N-[3-[[4-[[3-(2,3-difluoro-4-methoxyphenyl)imidazo[1,2-a]pyrazin-8-yl]amino]-2-methylbenzoyl]amino]propyl]-4-hydroxypyrrolidine-2-carboxamide] | 50
8 | CCc1cc(Nc2nccn3c(-c4ccc(OC)c(F)c4F)cnc23)ccc1C(=O)NCCCNC(=O)[C@@H](N)CNC(=N)N [Example 359, N-[3-[[(2S)-2-amino-3-carbamimidamidopropanoyl]amino]propyl]-4-[[3-(2,3-difluoro-4-methoxyphenyl)imidazo[1,2-a]pyrazin-8-yl]amino]-2-ethylbenzamide] | 60
9 | CCc1cc(Nc2nccn3c(-c4ccc(OC)c(F)c4F)cnc23)ccc1C(=O)NCCNC(=O)CCCN [Example 360, N-[2-(4-aminobutanoylamino)ethyl]-4-[[3-(2,3-difluoro-4-methoxyphenyl)imidazo[1,2-a]pyrazin-8-yl]amino]-2-ethylbenzamide] | 70
10 | COc1ccc(-c2cnc3c(Nc4ccc(C(=O)NCCCNC(=O)[C@@H]5C[C@](C)(O)CN5)c(C)c4)nccn23)c(F)c1F [Example 361, (2S,4S)-N-[3-[[4-[[3-(2,3-difluoro-4-methoxyphenyl)imidazo[1,2-a]pyrazin-8-yl]amino]-2-methylbenzoyl]amino]propyl]-4-hydroxy-4-methylpyrrolidine-2-carboxamide] | 80
11 | COc1ccc(-c2cnc3c(Nc4ccc(C(=O)N5CCN(C(=O)[C@@H]6C[C@@](C)(O)CN6)CC5)c(C)c4)nccn23)c(F)c1F [Example 362, [4-[[3-(2,3-difluoro-4-methoxyphenyl)imidazo[1,2-a]pyrazin-8-yl]amino]-2-methylphenyl]-[4-[(2S,4R)-4-hydroxy-4-methylpyrrolidine-2-carbonyl]piperazin-1-yl]methanone] | 80
12 | COc1ccc(-c2cnc3c(Nc4ccc(C(=O)NCCNC(=O)[C@@H]5C[C@@H](O)CN5)c(C)c4)nccn23)c(F)c1F [Example 363, (2S,4R)-N-[2-[[4-[[3-(2,3-difluoro-4-methoxyphenyl)imidazo[1,2-a]pyrazin-8-yl]amino]-2-methylbenzoyl]amino]ethyl]-4-hydroxypyrrolidine-2-carboxamide] | 90
13 | CCc1cc(Nc2nccn3c(-c4ccc(OC)c(F)c4F)cnc23)ccc1C(=O)NCCNC(=O)CCN [Example 364, N-[2-(3-aminopropanoylamino)ethyl]-4-[[3-(2,3-difluoro-4-methoxyphenyl)imidazo[1,2-a]pyrazin-8-yl]amino]-2-ethylbenzamide] | 90
14 | Cc1cc(Nc2nccn3c(-c4ccc(OCC#N)c(F)c4F)cnc23)ccc1C(=O)NCCNC(=O)[C@@H]1C[C@@H](O)CN1 [Example 365, (2S,4R)-N-[2-[[4-[[3-[4-(cyanomethoxy)-2,3-difluorophenyl]imidazo[1,2-a]pyrazin-8-yl]amino]-2-methylbenzoyl]amino]ethyl]-4-hydroxypyrrolidine-2-carboxamide] | 90
15 | CC[C@@]1(O)CN[C@H](C(=O)NCCNC(=O)c2ccc(Nc3nccn4c(-c5ccc(OCC#N)c(F)c5F)cnc34)cc2C)C1 [Example 366, (2S,4S)-N-[2-[[4-[[3-[4-(cyanomethoxy)-2,3-difluorophenyl]imidazo[1,2-a]pyrazin-8-yl]amino]-2-methylbenzoyl]amino]ethyl]-4-ethyl-4-hydroxypyrrolidine-2-carboxamide] | 100
16 | CCc1cc(Nc2nccn3c(-c4ccc(OC)c(F)c4F)cnc23)ccc1C(=O)NCCCNC(=O)[C@@H](N)CCNC(=N)N [Example 367, N-[3-[[(2S)-2-amino-4-carbamimidamidobutanoyl]amino]propyl]-4-[[3-(2,3-difluoro-4-methoxyphenyl)imidazo[1,2-a]pyrazin-8-yl]amino]-2-ethylbenzamide;formic acid] | 100
17 | CCc1cc(Nc2nccn3c(-c4ccc(OC)c(F)c4F)cnc23)ccc1C(=O)NCCNC(=O)CN [Example 368, N-[2-[(2-aminoacetyl)amino]ethyl]-4-[[3-(2,3-difluoro-4-methoxyphenyl)imidazo[1,2-a]pyrazin-8-yl]amino]-2-ethylbenzamide] | 120
18 | CCc1cc(Nc2nccn3c(-c4ccc(OC)c(F)c4F)cnc23)ccc1C(=O)NCCNC(=O)[C@@H]1C[C@@H](O)CN1 [Example 370, (2S,4R)-N-[2-[[4-[[3-(2,3-difluoro-4-methoxyphenyl)imidazo[1,2-a]pyrazin-8-yl]amino]-2-ethylbenzoyl]amino]ethyl]-4-hydroxypyrrolidine-2-carboxamide] | 140
19 | CC[C@@]1(O)CN[C@H](C(=O)NCCNC(=O)c2ccc(Nc3nccn4c(-c5ccc(OC)c(F)c5F)cnc34)cc2C)C1 [Example 371, (2S,4S)-N-[2-[[4-[[3-(2,3-difluoro-4-methoxyphenyl)imidazo[1,2-a]pyrazin-8-yl]amino]-2-methylbenzoyl]amino]ethyl]-4-ethyl-4-hydroxypyrrolidine-2-carboxamide] | 150
20 | COc1ccc(-c2cnc3c(Nc4ccc(C(=O)NCCNC(=O)[C@@H]5C[C@](C)(O)CN5)c(C)c4)nccn23)c(F)c1F [Example 372, (2S,4S)-N-[2-[[4-[[3-(2,3-difluoro-4-methoxyphenyl)imidazo[1,2-a]pyrazin-8-yl]amino]-2-methylbenzoyl]amino]ethyl]-4-hydroxy-4-methylpyrrolidine-2-carboxamide] | 150
21 | CCc1cc(Nc2nccn3c(-c4ccc(OC)c(F)c4F)cnc23)ccc1C(=O)NCCNC(=O)[C@@H](N)CO [Example 373, N-[2-[[(2S)-2-amino-3-hydroxypropanoyl]amino]eth-yl]-4-[[3-(2,3-difluoro-4-methoxyphenyl)imidazo[1,2-a]pyrazin-8-yl]amino]-2-ethylbenzamide] | 150
22 | CCc1cc(Nc2nccn3c(-c4ccc(OC)c(F)c4F)cnc23)ccc1C(=O)NCC(O)CNC(=O)CN (centres unmarked) [Example 374, N-[3-[(2-aminoacetyl)amino]-2-hydroxypropyl]-4-[[3-(2,3-difluoro-4-methoxyphenyl)imidazo[1,2-a]pyrazin-8-yl]amino]-2-ethylbenzamide] | 190
23 | CCc1cc(Nc2nccn3c(-c4ccc(OC)c(F)c4F)cnc23)ccc1C(=O)N[C@H](C)CCNC(=O)[C@@H](N)CCCNC(=N)N [Example 375, N-[(2R)-4-[[(2S)-2-amino-5-carbamimidamidopentanoyl]amino]butan-2-yl]-4-[[3-(2,3-difluoro-4-methoxyphenyl)imidazo[1,2-a]pyrazin-8-yl]amino]-2-ethylbenzamide] | 190
24 | CCc1cc(Nc2nccn3c(-c4ccc(OC)c(F)c4F)cnc23)ccc1C(=O)NCCNC(=O)CC(O)CN (centres unmarked) [Example 376, N-[2-[(4-amino-3-hydroxybutanoyl)amino]ethyl]-4-[[3-(2,3-difluoro-4-methoxyphenyl)imidazo[1,2-a]pyrazin-8-yl]amino]-2-ethylbenzamide] | 200
25 | COc1ccc(-c2cnc3c(Nc4ccc(C(=O)NCCN5CCNCC5)c(C)c4)nccn23)c(F)c1F [Example 377, 4-[[3-(2,3-difluoro-4-methoxyphenyl)imidazo[1,2-a]pyrazin-8-yl]amino]-2-methyl-N-(2-piperazin-1-ylethyl)benzamide] | 180
26 | COc1ccc(-c2cnc3c(Nc4ccc(C(=O)N[C@H](CO)Cc5cnc[nH]5)c(C)c4)nccn23)cc1F [Example 383, 4-[[3-(3-fluoro-4-methoxyphenyl)imidazo[1,2-a]pyrazin-8-yl]amino]-N-[(2S)-1-hydroxy-3-(1H-imidazol-5-yl)propan-2-yl]-2-methylbenzamide] | 820
